Assay results published in patent publication US5998436A, “Pyridonecarboxylic acid derivatives or their salts and antibacterial agent comprising the same as the active ingredient” (Wakunaga Pharmaceuticals Co., Ltd., priority 1995, dated 1999).
Converted amounts (≈) assume the structure as drawn. Structures can show the parent of a compound that is named as a salt. Where two headings read alike, the source gives them in different places.

Experiments:
P. aeruginosa IFO 3445 = assay: minimum growth inhibitory concentration (MIC), standard method of Japan Chemotherapy Society; type: cell-based; conditions: Pseudomonas aeruginosa
Experimental: (§1) It should be noted that ciprofloxacin, levofloxacin,sparfloxacin and tosufloxacin which are conventional antibacterials were also evaluated for their minimum growth inhibitory concentration (MIC, μg/ml) for the purpose of comparison.

S. aureus 209P = assay: as above; type: cell-based; conditions: Staphylococcus aureus, read-out: minimum growth inhibitory concentration (MIC)
Experimental: as §1

S. epidermidis IFO12293 = assay: as above; type: cell-based; conditions: Staphylococcus epidermidis
Experimental: as §1

Female ICR mice (ears) = conditions: mouse, in vivo, iv, 40 mg/kg
Experimental: The compounds of the Examples 9, 10, 12 and 39 as described above were subjected to phototoxicity test by the procedure as described below.
Female ICR mice (5 to 6 week old) were intravenously administered with the test compound (40 mg/kg/10 ml), and irradiated with UV (320 to 400 nm, 1.8 mW/cm^2 /sec) for 4 hours. Abnormality in the ears was monitored at 0 hour (immediately after the irradiation) and after 24 and 48 hours. The ear abnormality was evaluated by the following is criteria: no abnormality (0 point), very slight erythema (1 point), well defined erythema (2 points), moderate to severe erythema and edema formation (3 points). Tosufloxacin which is a conventional known antibacterial agent was also tested in a similar way for the purpose of comparison.

[1] = IFO3445, P. aeruginosa IFO 3445, read-out: minimum growth inhibitory concentration (MIC)
[2] = S. epidermidis IFO12293, read-out: minimum growth inhibitory concentration (MIC)

| SMILES | MIC (P. aeruginosa IFO 3445; [1]) [µg/mL] | MIC (S. aureus 209P; S. aureus 209P) [µg/mL] | MIC (S. epidermidis IFO12293; [2]) [µg/mL] | ear abnormality score (0 no abnormality, 1 very slight erythema, 2 well defined erythema, 3 moderate to severe erythema and edema) (Female ICR mice (ears)) [point] | ear abnormality, occurrence (Female ICR mice (ears)) | MIC (P. aeruginosa IFO 3445; IFO3445, read-out: minimum growth inhibitory concentration (MIC)) [µg/mL] | MIC (S. aureus 209P; 209P) [µg/mL] | MIC (S. epidermidis IFO12293; IFO12293, read-out: minimum growth inhibitory concentration (MIC)) [µg/mL] |
| --- | --- | --- | --- | --- | --- | --- | --- | --- |
| Nc1nc(-n2cc(C(=O)O)c(=O)c3cc(F)c(N4CC(N)C4)c(Cl)c32)c(F)cc1F [Ex. 9, 7-(3-aminoazetidin-1-yl)-1-(6-amino-3,5-difluoropyridin-2-yl)-8-chloro-6-fluoro-4-oxo-1,4-dihydroquinoline-3-carboxylic acid] | 0.05 (≈ 0.114 µM) | < 0.013 | 0.025 (≈ 0.0568 µM) | 0 | 0/3 |  |  |  |
| O=C(O)c1cn(C2CC2)c2cc(N3CCNCC3)c(F)cc2c1=O [Ciprofloxacin, ciprofloxacin, reference compound] |  |  |  |  |  | 0.2 (≈ 0.604 µM) | 0.1 (≈ 0.302 µM) | 0.39 (≈ 1.18 µM) |
| NC1CCN(c2nc3c(cc2F)c(=O)c(C(=O)O)cn3-c2ccc(F)cc2F)C1 (centres unmarked) [Tosufloxacin, tosufloxacin, reference compound] | 0.39 (≈ 0.965 µM) | 0.05 (≈ 0.124 µM) | 0.2 (≈ 0.495 µM) |  |  |  |  |  |

The next lines start with results.

| MIC (P. aeruginosa IFO 3445; [1]) [µg/mL] | MIC (S. aureus 209P; S. aureus 209P) [µg/mL] | MIC (S. epidermidis IFO12293; [2]) [µg/mL] | ear abnormality score (0 no abnormality, 1 very slight erythema, 2 well defined erythema, 3 moderate to severe erythema and edema) (Female ICR mice (ears)) [point] | ear abnormality, occurrence (Female ICR mice (ears)) | SMILES | MIC (P. aeruginosa IFO 3445; IFO3445, read-out: minimum growth inhibitory concentration (MIC)) [µg/mL] | MIC (S. aureus 209P; 209P) [µg/mL] | MIC (S. epidermidis IFO12293; IFO12293, read-out: minimum growth inhibitory concentration (MIC)) [µg/mL] |
| --- | --- | --- | --- | --- | --- | --- | --- | --- |
| 0.05 (≈ 0.103 µM) | < 0.013 | 0.025 (≈ 0.0516 µM) | 0 | 0/3 | Nc1nc(-n2cc(C(=O)O)c(=O)c3cc(F)c(N4CC(N)C4)c(Br)c32)c(F)cc1F [Ex. 39, 7-(3-aminoazetidin-1-yl)-1-(6-amino-3,5-difluoropyridin-2-yl)-8-bromo-6-fluoro-4-oxo-1,4-dihydroquinoline-3-carboxylic acid] |  |  |  |
| 0.39 | < 0.013 | < 0.013 | 0 | 0/3 | Nc1nc(-n2cc(C(=O)O)c(=O)c3cc(F)c(N4CC(O)C4)c(Cl)c32)c(F)cc1F [Ex. 12, 3-hydroxyazetidine salt of 1-(6-amino-3,5-difluoropyridin-2-yl)-8-chloro-6-fluoro-7-(3-hydroxyazetidin-1-yl)-4-oxo-1,4-dihydroquinoline-3-carboxylic acid] |  |  |  |
| 0.78 (≈ 1.99 µM) | 0.1 (≈ 0.255 µM) | 0.2 (≈ 0.51 µM) |  |  | C[C@@H]1CN(c2c(F)c(N)c3c(=O)c(C(=O)O)cn(C4CC4)c3c2F)C[C@H](C)N1 [Sparfloxacin, sparfloxacin, reference compound] |  |  |  |
| 0.1 (≈ 0.22 µM) | < 0.013 | 0.025 (≈ 0.0551 µM) | 0 | 0/3 | CNC1CN(c2c(F)cc3c(=O)c(C(=O)O)cn(-c4nc(N)c(F)cc4F)c3c2Cl)C1 [Ex. 10, 1-(6-amino-3,5-difluoropyridin-2-yl)-8-chloro-6-fluoro-7-(3-methylaminoazetidin-1-yl)-4-oxo-1,4-dihydroquinoline-3-carboxylic acid] |  |  |  |
| 0.39 (≈ 1.08 µM) | 0.1 (≈ 0.277 µM) | 0.39 (≈ 1.08 µM) |  |  | C[C@H]1COc2c(N3CCN(C)CC3)c(F)cc3c(=O)c(C(=O)O)cn1c23 [Levofloxacin, levofloxacin, reference compound] |  |  |  |
